According to US7507727B2, “Substituted quinobenzoxazine analogs and methods of using thereof” (Cylene Pharmaceuticals, Inc., priority 2003, dated 2009):
Like-named read-outs stand apart in the source and are kept apart here.

Tests used:
[1] = tested on: HeLa cells; assay: MTS cell proliferation and/or cytotoxicity assay; format: cell-based, Human; details: concentration at which 50% of antiproliferative cell response is seen, 3 days incubation, read-out: MTS Data Hella
Procedure: Cell culture. Human cervical epithelial cells (HeLa cells) were obtained from American Type Culture Collection (Manassas, Va.). Cells were grown in Eagle's minimum essential medium (MEM, Hyclone, Utah) supplemented with 2 mM Glutamine, 0.1 mM nonessential amino acid, 1 mM Na Pyruvate, 1.5 g/L NaHCO3, 50 mg/L gentamicin, and 10% fetal bovine serum (Hyclone, USA) in a humidified atmosphere of 5% CO2 at 37° C.
MTS assays. Antiproliferative effects of the compounds were tested by the CellTiter 96 AQueous assay (Promega, WI), which is a calorimetric assay for determining the number of viable cells. (See, e.g., Wang, L., et al., Methods Cell Sci (1996) 18:249-255). In one example, cells (4,500 cells/well) were seeded on 96 well flat bottom plates (Corning, N.Y.) in 100 μl of culture medium without any anticancer drug on day 0, and the culture medium was exchanged for that //contained anticancer drugs at various concentrations on day 1. After incubation for 3 days under normal growth conditions (on day 4), the monolayers were washed once in PBS, and the medium was switched to 100 μl of PBS in each of the 96 well plate. After mixing MTS and PMS at the ratio of 20:1, 20 μl of MTS/PMS solution was added to each of the 96 well plate and incubated for 4 hours in a humidified atmosphere of 5% CO2 at 37° C. The absorbance was read at 490 nm using FLUOstar Galaxy 96 well plate reader (BMG Labtechnologies, Germany). μM concentrations (MTS data) reported in Table 1 are concentrations at which 50% of antiproliferative cell response is seen.

[2] = target: c-Myc template DNA (c-myc quadruplex); assay: Quadruplex binding / stop assay (Taq polymerase arrest, capillary electrophoresis); details: read-out: Stop Data c-Myc μM; concentration at which 50% of the DNA was arrested (arrested:full-length 1:1)

Row | Structure (SMILES) | IC50 ([1]; Homo sapiens, HeLa, 72 h) | IC50 [2] | IC50 [1]
1 | Nc1c(F)c(N2CCC(N)C2)c2c3c1c(=O)c(C(=O)O)cn3-c1cc3ccccc3cc1O2 (stereo not drawn) [compound 5] | 7200 nM | 1.75 µM | 
2 | CC(C)(C)OC(=O)N[C@H]1CCN(c2c(F)cc3c(=O)c(C(=O)O)cn4c5cc6oc7cc([N+](=O)[O-])ccc7[nH]c6cc5oc2c34)C1 [compound 24] | 7000 nM | 0.5 µM | 
3 | NC1CCN(c2c(F)cc3c(=O)c(C(=O)O)cn4c5cc6c(=O)c7ccccc7c(=O)c6cc5oc2c34)C1 (stereo not drawn) [compound 25] | 200 nM | 0.25 µM | 
4 | CN1CCCC1CCNC(=O)c1cn2c3c(c(NC[C@@H]4CCCO4)c(F)cc3c1=O)Oc1cc3ccccc3cc1-2 (stereo partly drawn) [compound 26] |  | 4 µM | 730 nM
5 | CCN(CC)CCCC(C)NC(=O)c1cn2c3c(c(N4CCC(c5cnccn5)C4)c(F)cc3c1=O)Oc1cc3ccccc3cc1-2 (stereo not drawn) [compound 27] | 3800 nM | 3 µM | 
6 | CCN(CC)CCCC(C)NC(=O)c1cn2c3c(c(N4CCC(c5cnccn5)C4)c(F)cc3c1=O)Oc1ccccc1-2 (stereo not drawn) [compound 28] | 2500 nM | 3 µM | 
7 | CCN(CC)CCCC(C)NC(=O)c1cn2c3c(c(N4CCC(c5cnccn5)C4)ccc3c1=O)Oc1ccccc1-2 (stereo not drawn) [compound 29] | 2000 nM | 3 µM | 
8 | O=C(NCCN1CCCC1)c1cn2c3c(c(N4CCC(c5cnccn5)C4)ccc3c1=O)Oc1ccccc1-2 (stereo not drawn) [compound 30] | 1800 nM | 3 µM | 
9 | O=C(NCCN1CCCC1)c1cn2c3c(c(NCC4CCCO4)c(F)cc3c1=O)Oc1cc3ccccc3cc1-2 (stereo not drawn) [compound 31] | 1400 nM | 3 µM | 
10 | O=C(NCCN1CCCC1)c1cn2c3c(c(N4CCC(c5cnccn5)C4)c(F)cc3c1=O)Oc1ccccc1-2 (stereo not drawn) [compound 32] | 600 nM | 3 µM | 
11 | CN1CCCC1CCNC(=O)c1cn2c3c(c(NC[C@@H]4CCCO4)c(F)cc3c1=O)Oc1cc3ccccc3cc1-2 (stereo partly drawn) [compound 33] |  | 3 µM | 290 nM
12 | CN1CCCC1CCNC(=O)c1cn2c3c(c(NC[C@H]4CCCO4)c(F)cc3c1=O)Oc1cc3ccccc3cc1-2 (stereo partly drawn) [compound 34] | 280 nM | 3 µM | 
13 | N[C@H]1CCN(c2c(F)cc3c(=O)c(C(=O)NCCN4CCCC4)cn4c3c2Oc2ccccc2-4)C1 [compound 35] |  | 3 µM | 210 nM
14 | CN1CCCC1CCNC(=O)c1cn2c3c(c(N4CC[C@H](N)C4)c(F)cc3c1=O)Oc1ccccc1-2 (stereo partly drawn) [compound 36] | 160 nM | 3 µM | 
15 | O=C(N[C@H]1C(O)O[C@H](CO)[C@H](O)[C@@H]1O)c1cn2c3c(c(NCCCN4CCOCC4)c(F)cc3c1=O)Oc1cc3c(cc1-2)oc1ccccc13 (stereo partly drawn) [compound 37] | 2800 nM | 2.5 µM | 
16 | CN1CCCC1CCNC(=O)c1cn2c3c(c(NC[C@H]4CCCO4)c(F)cc3c1=O)Oc1cc3ccccc3cc1-2 (stereo partly drawn) [compound 38] |  | 2.5 µM | 260 nM
17 | CN1CCCC1CCNC(=O)c1cn2c3c(c(NCCCN4CCCC4=O)c(F)cc3c1=O)Oc1cc3ccccc3cc1-2 (stereo not drawn) [compound 102] | 2200 nM | 1.8 µM | 
18 | CN(C)C1CCN(c2c(F)cc3c(=O)c(C(=O)NCCC4CCCN4C)cn4c3c2Oc2cc3ccccc3cc2-4)C1 (stereo not drawn) [compound 104] | 2800 nM | 1.75 µM | 
19 | CCN(CC)C1CCN(c2c(F)cc3c(=O)c(C(=O)NCCC4CCCN4C)cn4c3c2Oc2cc3ccccc3cc2-4)C1 (stereo not drawn) [compound 105] | 2800 nM | 1.75 µM | 
20 | CN(C)CCCCNC(=O)c1cn2c3c(c(N4CC[C@@H](N)C4)c(F)cc3c1=O)Oc1ccccc1-2 [compound 106] | 2500 nM | 1.75 µM | 
21 | O=C(NCCN1CCCC1)c1cn2c3c(c(NCCCN4CCOCC4)c(F)cc3c1=O)Oc1cc3c(O)ncnc3cc1-2 [compound 107] | 1800 nM | 1.75 µM | 
22 | CN(C)CCCCNC(=O)c1cn2c3c(c(N4CC[C@H](N)C4)c(F)cc3c1=O)Oc1ccccc1-2 [compound 108] | 460 nM | 1.75 µM | 
23 | N[C@H]1CCN(c2c(F)cc3c(=O)c(C(=O)NCCN4CCCC4)cn4c3c2Oc2ccccc2-4)C1 [compound 109] | 310 nM | 1.75 µM | 
24 | CN1CCCC1CCNC(=O)c1cn2c3c(c(N4CC[C@@H](N)C4)c(F)cc3c1=O)Oc1c-2ccc2ccccc12 (stereo partly drawn) [compound 110] | 250 nM | 1.75 µM | 
